{
  "source": "patent EP2236511A2",
  "about": "“LIGANDS OF ALPHA-ADRENOCEPTORS AND OF DOPAMINE, HISTAMINE, IMIDAZOLINE AND SEROTONIN RECEPTORS AND THE USE THEREOF” (priority 2007, dated 2009)",
  "key": {"human D3 receptor": {"target": "T1, human D3 receptor (Homo sapiens, UniProt P35462)", "T1 construct": "expressed in transfected cells; host or cells: CHO", "T1 sequence (P35462 whole entry)": "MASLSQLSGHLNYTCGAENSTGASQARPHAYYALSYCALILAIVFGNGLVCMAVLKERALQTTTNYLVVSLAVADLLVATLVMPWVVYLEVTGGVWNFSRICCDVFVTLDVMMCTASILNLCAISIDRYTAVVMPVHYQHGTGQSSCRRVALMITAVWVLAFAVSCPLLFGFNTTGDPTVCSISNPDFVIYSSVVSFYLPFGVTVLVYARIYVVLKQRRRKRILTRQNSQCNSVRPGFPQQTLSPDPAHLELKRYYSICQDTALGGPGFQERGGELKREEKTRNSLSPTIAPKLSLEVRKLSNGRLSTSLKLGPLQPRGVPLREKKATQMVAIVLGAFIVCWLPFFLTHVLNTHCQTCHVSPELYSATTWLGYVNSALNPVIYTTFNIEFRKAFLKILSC", "assay": "Radioligand binding to dopamine receptor D3 ([3H] Spiperone, CHO membranes)", "excerpt": "For this purpose sDNA of human D3 receptor is expressed in CHO cells, as it was described in [Sokoloff P, Giros B, Martres M-P, Bouthenet M-L and Schwartz J-C. Molecular cloning and characterization of novel dopamine receptor (D3) as target for neuroleptics. Nature. […] Molecular cloning and characterization of novel dopamine receptor (D3) as target for neuroleptics. Nature. […] Spiperone is used as positive control."}, "mice": {"tested_on": "mice", "assay": "Mice Training in Morris Water Maze (Scopolamine)", "assay_type": "in vivo", "details": "unitary introduction of active ingredient; figures 10-13", "procedure": "Example 17. Mice Training in Morris Water Maze. A round pool which was filled with water at 20-22°C was used. A round ceramic platform of 14cm height was placed in the pool. Animals's behavior was registered with automated computer videosystem in combination with software package of movement analysis Any-maze (Stoelting Co., US). Before testing mice suitable for training were selected. That was done by placing the platform 1cm above the water level and putting an animal on the platform for 20 seconds. Then the mouse was sunk into the water on the opposite side of the pool, allowed to find the platform and climbed it […] 60 seconds, where it was left for additional 20 seconds. After that the mouse was repeatedly immersed into water on the opposite side of the pool and allowed to look for platform. If it failed in finding the platform within 60 seconds the experimentator helped it to find the platform and climb it. If the mice could not find the platform itself in two consecutive attempts it was excluded from experiment. During the next two days the platform was placed 0.5 centimeter lower the water level. Every day the mice were given four attempts for finding the platform within 60 seconds. The time interval between the attempts was 20 seconds, during which the mice stayed on the platform. Every day before the first attempt mouse was placed on the platform for 20 seconds. The time needed for finding and climbing the platform was registered. The animals were sunk in water in 3 different places on the side of the pool opposite to platform. On each day of two-day testing 35-40 minutes before the beginning of training the mice were injected intraintestinally with physiological solution, Scopolamine or Scopolamine in combination with investigated compound. At least 8 animals were used in each group. On the third day the platform was removed and each animal was placed one time in the pool for a period of 60 seconds. The time each mouse spent in the area where the platform had been located during the previous days was registered. This time interval was regarded as a measure of effectiveness of training fulfilled during the previous two days. The testing was carried out during the day time in isolated laboratory using \"white noise\" at level of about 70 decibel above the human hearing threshold."}, "male mice of BALB/c line [1]": {"tested_on": "male mice of BALB/c line", "assay": "Passive Avoidance of mice in the Shuttle Chamber, memory disturbed by Scopolamine", "assay_type": "in vivo", "details": "Scopolamine 0.3 mg/kg, injected 30 minutes before training; figures 1-3", "procedure": "Example 14. […] A shuttle chamber (Ugo Basile, Italy) consisted of two sections was used. […] The sections were connected through a hole which could be overlapped by a vertical door. The floor was made of transverse metal bars on which DC current impulses could be fed. Experiments were carried out in aged male mice of BALB/c line weighing 20-24 grams.\nEach group consisted of at least 8 animals. Animal was placed in light section, and latent period of the first entry into dark chamber was registered. Then the vertical door was closed and the animal was punished by 0.6 mA DC current for 3 seconds. After that it was taken back to its homecage. In 22-24 hours the same animal was placed again in light section of the shuttle chamber and latent period of its first entry into dark section, the total time of its stay in light section, and the number of entries into dark section, were registered. Each monitoring lasted for 5 minutes.\nTesting was carried out during the day time in isolated laboratory using white noise at level of about 70 decibel above human hearing threshold.\nScopolamine causes the disturbance of training (memory loss) that results in […]."}, "male mice of BALB/c line [2]": {"tested_on": "male mice of BALB/c line", "assay": "Passive Avoidance of mice in the Shuttle Chamber, memory disturbed by MK-801", "assay_type": "in vivo", "details": "MK-801 0.1 mg/kg, injected 30 minutes before training; fig. 4-6", "procedure": "Example 15. […] The testing was carried out as in example 14. […] Concurrently, physiological solution of MK-801 in combination with active ingredient 1.9 (1) 1/2NDSA was injected intraintestinally to independent group of mice before training."}, "male mice of BALB/c line [3]": {"tested_on": "male mice of BALB/c line", "assay": "Mice Behavior in the Elevated Plus Maze", "assay_type": "in vivo", "details": "fig. 7-9; compared with Buspirone and Lorazepam", "excerpt": "Example 16. […] The length of each arm of the maze was 30cm, width is 5cm, and height of the walls was 15cm. Two opposite arms were closed from both sides and end faces by transparent walls, the other two arms were lit and opened. A mouse was placed in the center of the maze and for the next five minutes the number of entries into opened and closed arms and the time spent in each type of arms was registered. […] The animals usually avoided opened arms (the preference index is between 0.2 and 0.3). Compounds with tranquilizing action increased this index up to 0.5-0.6 or even more and reduced the number of defecations without changing the overall motion activity of the mice (the total number of their entries to the arms)."}, "[4]": {"details": "read-out: Dopamine receptors, % inhibition D3"}},
  "note": "Where two headings read alike, the source gives them in different places.",
  "data": [
    {"smiles": "Cc1ccc2c(c1)[C@@H]1CN(C)CCC[C@@H]1N2CCc1cccnc1", "note": "(relative stereo) [1.6.1(1)·3HCl]", "values": [
      {"measurement": "inhibition at 10 µM", "setting": "human D3 receptor; [4]", "value": 34, "unit": "%"}
    ]},
    {"smiles": "Cc1ccc2c(c1)[C@@H]1CN(C)CCC[C@@H]1N2CCc1ccc(C)nc1", "note": "(relative stereo) [1.6.1(2)·3HCl]", "values": [
      {"measurement": "inhibition at 10 µM", "setting": "human D3 receptor; [4]", "value": 41, "unit": "%"}
    ]},
    {"smiles": "Cc1ccc2c(c1)c1c(n2CCc2ccccn2)CCN(C)C1", "note": "[1.1.2(2-3)·2HCl]", "values": [
      {"measurement": "inhibition at 3 µM", "setting": "human D3 receptor; [4]", "value": 78, "unit": "%"},
      {"measurement": "memory disorders caused by Scopolamine (time spent in area of the platform)", "setting": "mice", "value": "decreasing memory disorders"}
    ]},
    {"smiles": "Cc1ccc2c(c1)c1c(n2CCc2ccc(C)nc2)CCN(C)C1", "note": "[1.1.2(4-2)·2HCl]", "values": [
      {"measurement": "inhibition at 10 µM", "setting": "human D3 receptor; 10 µM ligand, read-out: Dopamine receptors, % inhibition D3", "value": 64, "unit": "%"}
    ]},
    {"smiles": "CN1CCc2c(c3ccccc3n2Cc2ccccc2)C1", "note": "[1.9(1)·1/2NDSA, bis-(5-benzyl-2-methyl-2,3,4,5-tetrahydro-1H-pyrido[4,3-b]indole) naphthalene-1,5-disulfonate]", "values": [
      {"measurement": "nH", "setting": "human D3 receptor; Receptor D3", "value": 1.04},
      {"measurement": "inhibition at 10 µM", "setting": "human D3 receptor; [4]", "value": 65, "unit": "%"},
      {"measurement": "enhancement of memory disturbed by Scopolamine", "setting": "male mice of BALB/c line [1]", "value": "nootropic action"},
      {"measurement": "memory enhancement disturbed by MK-801", "setting": "male mice of BALB/c line [2]", "value": "act as nootropic"},
      {"measurement": "Anxiolytic (tranquilizing) action", "setting": "male mice of BALB/c line [3]", "value": "exhibits anxiolytic (tranquilizing) action"}
    ]}
  ]
}
